Test results: ChEMBL document CHEMBL1128746, “Aminoalkylindoles: structure-activity relationships of novel cannabinoid mimetics” (J Med Chem, 1995)

Tests used:
[1] = target: Cannabinoid receptor 1 (Rattus norvegicus) (UniProt P20272); assay: (§1) […] [3H]WIN-55212 binding to Cannabinoid receptor 1 in rat cerebellum membranes.; type: cell membranes; details: Membrane, concentration not given here
Mus musculus = species on record: Mus musculus; assay: Concentration required to inhibit electrically induced contractions in isolated mouse vas deferens preparation in vitro; type: functional
Cannabinoid receptor 1 = Cannabinoid receptor 1 (Rattus norvegicus, UniProt P20272); assay: as §1; type: cell membranes, Membrane
Sequence of Cannabinoid receptor 1 (P20272 whole entry): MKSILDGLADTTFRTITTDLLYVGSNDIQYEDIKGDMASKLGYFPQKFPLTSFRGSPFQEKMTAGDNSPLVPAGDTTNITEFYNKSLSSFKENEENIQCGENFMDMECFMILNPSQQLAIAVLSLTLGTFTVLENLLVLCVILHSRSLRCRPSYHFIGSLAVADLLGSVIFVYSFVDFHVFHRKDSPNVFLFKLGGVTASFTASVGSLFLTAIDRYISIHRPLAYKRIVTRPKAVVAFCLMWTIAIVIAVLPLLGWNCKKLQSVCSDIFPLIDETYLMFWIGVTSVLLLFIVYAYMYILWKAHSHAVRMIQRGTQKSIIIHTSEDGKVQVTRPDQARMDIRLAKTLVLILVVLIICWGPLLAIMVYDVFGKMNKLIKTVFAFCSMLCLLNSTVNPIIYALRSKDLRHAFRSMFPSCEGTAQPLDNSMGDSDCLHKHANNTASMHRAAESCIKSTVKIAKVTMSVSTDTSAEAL

Sequence of Cannabinoid receptor 1 (Rattus norvegicus) (P20272 whole entry): as above

SMILES | inhibition [1] | IC50 (Mus musculus; Mus musculus) | IC50 (Cannabinoid receptor 1) | IC50 (Mus musculus)
Cc1c(C(=O)c2cccc(C#N)c2)c2ccccc2n1CCN1CCOCC1 | 1% | – | – | –
Cc1c(C(=O)c2ccccc2C#N)c2ccccc2n1CCN1CCOCC1 | 0% | – | – | –
Cc1ccc2c(C(=O)c3cccc4ccccc34)cn(CCN3CCOCC3)c2c1 | – | 0.0017 µM | 0.0035 µM | –
O=C(c1cccc2ccccc12)c1c(Cl)n(CCN2CCOCC2)c2ccccc12 | – | 0.0061 µM | 0.01 µM | –
Cc1c(C(=O)c2cccc(F)c2)c2ccccc2n1CCN1CCOCC1 | 38% | – | – | –
CC(Cn1cc(C(=O)c2cccc3ccccc23)c2ccccc21)N1CCOCC1 (stereo unspecified) | – | 0.06 µM | 0.124 µM | –
Cc1c(C(=O)c2ccc3ccccc3c2)c2ccccc2n1CCN1CCOCC1 | – | 0.05 µM | 0.128 µM | –
COc1ccc(C(=O)c2c(C)n(CCN3CCOC(C)C3)c3ccccc23)cc1 (stereo unspecified) | – | > 10 µM | – | –
Cc1c(C(=O)c2ccc(C(C)(C)C)cc2)c2ccccc2n1CCN1CCOCC1 | 56% | – | – | –
O=C(c1cccc2ccccc12)c1cn(CCCN2CCOCC2)c2ccccc12 | – | 0.0098 µM | 0.043 µM | –
Cc1ccc(C(=O)c2cn(CCN3CCOCC3)c3ccccc23)c2ccccc12 | – | 0.0036 µM | 0.0028 µM | –
Cc1c(C(=O)c2cc3ccccc3o2)c2ccccc2n1CCN1CCOCC1 | – | 0.324 µM | 0.416 µM | –
COc1ccc(C(=O)c2c(C)n(CCN3CCOCC3)c3cc(C)ccc23)cc1 | – | > 10 µM | 1.88 µM | –
Cc1c(C(=O)c2cccc3ccccc23)c2ccccc2n1C(C)CN1CCOCC1 (racemic; form 2) | – | – | 0.013 µM | 0.011 µM
Cc1c(C(=O)c2cccc3cccnc23)c2ccccc2n1CCN1CCOCC1 | – | 0.129 µM | 0.274 µM | –
Cc1c(C(=O)c2ccccc2O)c2ccccc2n1CCN1CCOCC1 | -2% | – | – | –
CC(CN1CCOCC1)n1cc(C(=O)c2cccc3ccccc23)c2ccccc21 (stereo in doubt; -106) | – | – | 0.033 µM | 0.012 µM
Cc1c(C(=O)c2cccc3ccccc23)c2ccccc2n1CCN1CCN(C)CC1 | – | > 10 µM | – | –
COc1ccc(C(=O)c2c(C)n(CCN3CCOCC3)c3ccccc23)c2ccccc12 | – | 0.023 µM | 0.055 µM | –
O=C(c1ccc2occc2c1)c1cn(CCN2CCOCC2)c2ccccc12 | – | 0.028 µM | 0.138 µM | –
CC(CN1CCOCC1)n1cc(C(=O)c2cccc3ccccc23)c2ccccc21 (racemic; form 1) | – | – | 0.114 µM | 0.06 µM
COc1ccc(C(=O)c2cn(CCN3CCOCC3)c3ccccc23)c2ccccc12 | – | – | 0.0014 µM | –
COc1ccc(C(=O)c2c(C)n(CCN3CCS(=O)(=O)CC3)c3ccccc23)cc1 | -4% | – | – | –

SMILES | inhibition [1] | IC50 (Mus musculus; Mus musculus) | IC50 (Cannabinoid receptor 1) | IC50 (Mus musculus)
Cc1c(C(=O)c2cccc3ccccc23)c2ccccc2n1CCN1CCNCC1 | -9% | – | – | –
O=C(c1ccc2ncccc2c1)c1cn(CCN2CCOCC2)c2ccccc12 | – | 0.142 µM | 0.491 µM | –
O=C(c1ccc(O)c2ccccc12)c1cn(CCN2CCOCC2)c2ccccc12 | – | – | 0.0034 µM | –
Cc1c(C(=O)c2coc3ccccc23)c2ccccc2n1CCN1CCOCC1 | – | 0.052 µM | 0.11 µM | –
O=C(c1cccc2ccccc12)c1cn(CCN2CCOCC2)c2ccc(O)cc12 | – | 0.02 µM | 0.07 µM | –
Cc1c(C(=O)c2ccc3occc3c2)c2ccccc2n1CCN1CCOCC1 | – | 0.126 µM | 0.357 µM | –
CC(CN1CCOCC1)n1cc(C(=O)c2cccc3ccccc23)c2ccccc21 (racemic; form 2) [listing 1 of 2 here] | 94% | – | – | –
Cc1c(C(=O)c2cccc3ccccc23)c2ccccc2n1CCN1CCOC(C)C1 (stereo unspecified) | – | 0.03 µM | 0.059 µM | –
O=C(c1cccc2ccccc12)c1cn(CCN2CCOCC2)c2ccc(F)cc12 | – | 0.0073 µM | 0.035 µM | –
Cc1c(C(=O)c2cccc3ccccc23)c2ccccc2n1CCN1CCCCC1 | – | 0.066 µM | 0.037 µM | –
COc1ccc(C(=O)c2c(C)n(CCN3CCOCC3)c3cc(Br)ccc23)cc1 | – | > 10 µM | 0.515 µM | –
COc1ccc(C(=O)c2c(C)n(CCCCN3CCOCC3)c3ccccc23)cc1 | – | > 10 µM | – | –
CCc1c(C(=O)c2ccc(OC)cc2)c2ccccc2n1CCN1CCOCC1 | – | > 10 µM | – | –
CCc1ccc(C(=O)c2c(C)n(CCN3CCOCC3)c3ccccc23)cc1 | – | 0.071 µM | 0.306 µM | –
Cc1c(C(=O)c2ccc(F)cc2)c2ccccc2n1CCN1CCOCC1 | 12% | – | – | –
O=C(c1ccc2ccoc2c1)c1cn(CCN2CCOCC2)c2ccccc12 | – | 0.04 µM | 0.304 µM | –
COc1ccc(C(=O)c2c(C)n(CC[N+]3(C)CCOCC3)c3ccccc23)cc1 | – | 4.31 µM | – | –
CC(CN1CCOCC1)n1cc(C(=O)c2cccc3ccccc23)c2ccccc21 (racemic; form 2) [listing 2 of 2 here] | – | – | – | 0.019 µM
COc1ccc(C(=O)c2c(C)n(CCN3CCOCC3)c3c(F)cccc23)cc1 | – | 0.073 µM | 0.571 µM | –
Cc1c(C(=O)c2ccc(Br)c3ccccc23)c2ccccc2n1CCN1CCOCC1 | – | 0.034 µM | 0.0069 µM | –
COc1cccc2c(C(=O)c3cccc4ccccc34)c(C)n(CCN3CCOCC3)c12 | – | – | 0.01 µM | –
COc1ccc(C(=O)c2c(C)n(CCN(C)C)c3ccccc23)cc1 | 11% | – | – | –
COc1ccc(C(=O)c2cn(CCN3CCOCC3)c3ccccc23)cc1 | – | 0.101 µM | 0.39 µM | –

SMILES | inhibition [1] | IC50 (Mus musculus; Mus musculus) | IC50 (Cannabinoid receptor 1) | IC50 (Mus musculus)
COc1ccc(C(=O)c2c(C)n(CCN3CCOCC3)c3c(C)cccc23)cc1 | – | 0.178 µM | 1.53 µM | –
Cc1c(C(=O)c2ccc3ncccc3c2)c2ccccc2n1CCN1CCOCC1 | – | 0.103 µM | 0.499 µM | –
CCN(CC)CCn1c(C)c(C(=O)c2ccc(OC)cc2)c2ccccc21 | – | > 10 µM | – | –
Cc1c(C(=O)c2ccc3ccccc3n2)c2ccccc2n1CCN1CCOCC1 | – | 0.099 µM | 0.331 µM | –
COc1ccc(C(=O)c2c(F)n(CCN3CCOCC3)c3ccccc23)cc1 | 7% | – | – | –
Cc1cccc(C(=O)c2c(C)n(CCN3CCOCC3)c3ccccc23)c1C | – | – | 0.373 µM | –
COc1ccc(C(=O)c2c(C)n(CCN)c3ccccc23)cc1 | – | > 10 µM | – | –
O=C(c1cn(CCN2CCOCC2)c2ccccc12)c1cccc2ccoc12 | – | 0.0046 µM | 0.018 µM | –
Cc1c(C(=O)c2cccc3ccccc23)c2ccccc2n1CCCN1CCOCC1 | – | 0.112 µM | 0.15 µM | –
O=C(c1cccc2ccccc12)c1cn(CCN2CCOCC2)c2ccc(Br)cc12 | – | 0.019 µM | 0.186 µM | –
COc1ccc(C(=O)c2c(C#N)n(CCN3CCOCC3)c3ccccc23)cc1 | 3% | – | – | –
O=C(c1ccc2ccccc2c1)c1cn(CCN2CCOCC2)c2ccccc12 | – | 0.031 µM | 0.059 µM | –
Cc1c(C(=O)c2cccc3ncccc23)c2ccccc2n1CCN1CCOCC1 | – | 0.079 µM | 0.828 µM | –
Cc1c(C(=O)c2cccc3ccoc23)c2ccccc2n1CCN1CCOCC1 | – | 0.017 µM | 0.071 µM | –
Cc1cccc(C(=O)c2c(C)n(CCN3CCOCC3)c3ccccc23)c1 | – | – | 0.606 µM | –
COc1ccccc1C(=O)c1c(C)n(CCN2CCOCC2)c2ccccc12 | – | 0.091 µM | 0.8 µM | –
COc1ccc(C(=O)c2c(C)n(CCN3CCNCC3)c3ccccc23)cc1 | – | > 10 µM | – | –
O=C(c1cccc2occc12)c1cn(CCN2CCOCC2)c2ccccc12 | – | 0.0077 µM | 0.024 µM | –
O=C(c1cccc2ccccc12)c1cn(CCN2CCOCC2)c2ccccc12 | – | 0.0063 µM | 0.0078 µM | –
COc1ccc(C(=O)c2c(C)n(CCN3CCOCC3C)c3ccccc23)cc1 (stereo unspecified) | – | > 10 µM | – | –
COc1ccc(C(=O)c2c(C)[nH]c3ccccc23)cc1 | – | 0.027 µM | – | –
Cc1ccc(C(=O)c2c(C)n(CCN3CCOCC3)c3ccccc23)c2ccccc12 | – | 0.0096 µM | 0.0059 µM | –
Cc1c(C(=O)c2cccc3ccccc23)c2ccc(Br)cc2n1CCN1CCOCC1 | – | – | 0.01 µM | –

SMILES | inhibition [1] | IC50 (Mus musculus; Mus musculus) | IC50 (Cannabinoid receptor 1) | IC50 (Mus musculus)
Cc1c(C(=O)c2cccc3ccccc23)c2ccccc2n1CCN1CCOCC1C (stereo unspecified) | – | 0.207 µM | 0.384 µM | –
O=C(c1c2ccccc2cc2ccccc12)c1cn(CCN2CCOCC2)c2ccccc12 | – | > 10 µM | 2.96 µM | –
Cc1c(C(=O)c2cccc3ccccc23)c2ccccc2n1C(C)CN1CCOCC1 (racemic; form 1) [listing 1 of 2 here] | 79% | – | – | –
Cc1c(C(=O)c2cccc3ccccc23)c2ccccc2n1CCN1CCOCC1 | – | 0.015 µM | 0.019 µM | –
Cc1c(C(=O)c2ccc(C#N)c3ccccc23)c2ccccc2n1CCN1CCOCC1 | – | 0.015 µM | 0.015 µM | –
CCCCCc1cc(O)c2c(c1)OC(C)(C)[C@@H]1CCC(C)=C[C@@H]21 [DRONABINOL] | – | 0.004 µM | – | –
Cc1c(C(=O)c2c3ccccc3cc3ccccc23)c2ccccc2n1CCN1CCOCC1 | – | > 10 µM | – | –
COc1ccc(C(=O)c2c(C)n(CC(=O)O)c3ccccc23)cc1 | – | > 10 µM | – | –
CCCc1ccc(C(=O)c2c(C)n(CCN3CCOCC3)c3ccccc23)cc1 | – | – | 1.13 µM | –
Cc1ccc(C(=O)c2c(C)n(CCN3CCOCC3)c3ccccc23)cc1C | – | – | 0.14 µM | –
Cc1c(C(=O)c2cccc3ccccc23)c2ccccc2n1C(C)CN1CCOCC1 (racemic; form 1) [listing 2 of 2 here] | – | – | – | 0.056 µM
COc1ccc(C(=O)c2c(C)n(CC(C)N3CCOCC3)c3ccccc23)cc1 (stereo unspecified) | – | > 10 µM | – | –
O=C(c1cn(CCN2CCOCC2)c2ccccc12)C1CCCc2ccccc21 (stereo unspecified) | – | 0.011 µM | 0.038 µM | –
COc1ccc(C(=O)c2c(C)n(CCN3CCOCC3)c3cc(OC)ccc23)cc1 | – | > 10 µM | 1.45 µM | –
COc1ccc(C(=O)c2c(C)n(CCN3CCOCC3)c3ccccc23)cc1 [PRAVADOLINE] | – | 0.319 µM | 3.15 µM | –
COc1ccc(C(=O)c2c(O)n(CCN3CCOCC3)c3ccccc23)cc1 | 1% | – | – | –
Cc1c(C(=O)c2ccnc3ccccc23)c2ccccc2n1CCN1CCOCC1 | – | 0.115 µM | 0.283 µM | –
Cc1c(C(=O)c2cccc(Cl)c2)c2ccccc2n1CCN1CCOCC1 | – | – | 1.32 µM | –
COc1ccc(C(=O)c2c(C)n(CCN3CCSCC3)c3ccccc23)cc1 | – | – | 0.622 µM | –
Cc1c(C(=O)c2ccc3cccnc3c2)c2ccccc2n1CCN1CCOCC1 | – | 0.088 µM | – | –
Cc1ccc2c(C(=O)c3cccc4ccccc34)c(C)n(CCN3CCOCC3)c2c1 | – | 0.015 µM | 0.011 µM | –
Cc1ccc(C(=O)c2c(C)n(CCN3CCOCC3)c3ccccc23)cc1 | – | 0.442 µM | 1.77 µM | –
